Key:
[1] = target: PDE4B (aa 152-484, Uniprot ID Q07343) (Homo sapiens (Human), UniProt Q07343); experiment: PDE4 SPA assay (scintillation proximity assay); assay type: biochemical; conditions: read-out: PDE4B2 IC50
In short: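 Scintillation proximity read-out after a 30 min room-temperature reaction of ~81.6 pM PDE4B catalytic fragment (aa 152-484) with 1 μM tritiated/unlabeled cAMP, pH 7.5 Tris buffer with MgCl2 and Brij 35. Compound given ~10 min beforehand, 4-fold dilutions, ~2% DMSO; IC50 from four-parameter logistic curve.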

IL-4 = experiment: Cytokine assay: IL-4 release from PHA-L stimulated human PBMCs; assay type: cell-based; conditions: Homo sapiens, PBMC, read-out: IL4 IC50
In short: (§1)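 Compound effect on mitogen-driven cytokine release is tested in cryopreserved human PBMCs stimulated for 48 h with PHA-L (3.5 μg/mL final). Released cytokine is detected by HTRF.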

IL-13 = experiment: Cytokine assay: IL-13 release from PHA-L stimulated human PBMCs; assay type: cell-based; conditions: Homo sapiens, PBMC, read-out: IL13 IC50
In short: as §1

[2] = In-vitro skin permeation study (Franz cell assay); assay type: in vitro ADME; conditions: N=15 (3 skin donors, 5 replicates per donor)
Method: Topical formulations prepared containing Example 4 that were tested for skin permeability and maximum flux of Example 4 are listed in Table 13.
A higher driving force can be achieved via incorporation into the formulations of additional penetration enhancers such as oleyl alcohol.

IFNγ = experiment: Cytokine assay: IFNγ release from PHA-L stimulated human PBMCs; assay type: cell-based; conditions: Homo sapiens, PBMC
In short: as §1

[3] = 0.01% Example 4 ointment formulation from Table 13
[4] = 0.1% Example 4 ointment formulation from Table 13
[5] = 1% Example 4 ointment formulation from Table 13

PDE4B (aa 152-484, Uniprot ID Q07343), sequence (Q07343 324-656): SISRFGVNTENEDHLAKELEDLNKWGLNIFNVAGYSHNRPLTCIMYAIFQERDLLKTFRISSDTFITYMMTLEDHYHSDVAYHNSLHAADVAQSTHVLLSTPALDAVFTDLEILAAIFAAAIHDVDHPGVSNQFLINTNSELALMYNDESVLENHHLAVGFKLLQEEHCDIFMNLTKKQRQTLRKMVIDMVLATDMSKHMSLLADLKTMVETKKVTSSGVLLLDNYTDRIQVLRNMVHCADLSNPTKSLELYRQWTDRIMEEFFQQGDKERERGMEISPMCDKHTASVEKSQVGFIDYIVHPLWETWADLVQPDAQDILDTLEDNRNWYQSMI

SMILES	IC50 [1]	IC50 (IL-4)	IC50 (IL-13)	Mean, Cumulative Amount in 24 hours [2, 3]	Mean, Max. Flux [2, 3]	Mean, Cumulative Amount in 24 hours [2, 4]	Mean, Max. Flux [2, 4]	Mean, Cumulative Amount in 24 hours [2, 5]	Mean, Max. Flux [2, 5]	IC50 (IFNγ)
CCCOc1cc(-c2cncc([C@@H]3COB(O)C3)c2)ccc1OC [Example 4, (R) 4-(5-(4-methoxy-3-propoxyphenyl)pyridin-3-yl)-1,2-oxaborolan-2-ol]	0.5 nM	4.11 nM	135 nM	233.0 ng	20.14 ng/cm^2/hr	1089.9 ng	73.95 ng/cm^2/hr	3357.7 ng	252.28 ng/cm^2/hr	1.06 nM
COc1ccc(-c2cc(C)cc(C3COB(O)C3)c2)cc1OC (stereo not shown) [Example 207, 4-(3′,4′-dimethoxy-5-methyl-[1,1′-biphenyl]-3-yl)-1,2-oxaborolan-2-ol]	10.3 nM	390 nM	1800 nM							53.5 nM
CCCOc1c(OC)ccc(-c2cncc(C3COB(O)C3)n2)c1F (stereo not shown) [Example 215, 4-(6-(2-fluoro-4-methoxy-3-propoxyphenyl)pyrazin-2-yl)-1,2-oxaborolan-2-ol]	2.58 nM	62.7 nM	2050 nM							2.18 nM
CCOc1ccc(-c2cncc(C3COB(O)C3)c2)c(F)c1OC (stereo not shown) [Example 217, 4-(5-(4-ethoxy-2-fluoro-3-methoxyphenyl)pyridin-3-yl)-1,2-oxaborolan-2-ol]	5.5 nM	20.5 nM	2070 nM							10.3 nM
CCCOc1cc(-c2cc(C3COB(O)C3)cnc2C)cnc1OC (stereo not shown) [Example 218, 4-(6′-methoxy-2-methyl-5′-propoxy-[3,3′-bipyridin]-5-yl)-1,2-oxaborolan-2-ol]	1.45 nM	3.24 nM	2840 nM							2.3 nM
CCOc1cc(C2COB(O)C2)nc(-c2ccc(OC)c(OCC)c2)n1 (stereo not shown) [Example 222, 4-(6-ethoxy-2-(3-ethoxy-4-methoxyphenyl)pyrimidin-4-yl)-1,2-oxaborolan-2-ol]	1.14 nM	1.44 nM	2370 nM							1.17 nM
CCCOc1cc(-c2nc(OC)cc(C3COB(O)C3)n2)ccc1OC (stereo not shown) [Example 224, 4-(6-methoxy-2-(4-methoxy-3-propoxphenyl)pyrimidin-4-yl)-1,2-oxaborolan-2-ol]	2.17 nM	8.94 nM	2490 nM							8.12 nM
COc1ccc(-c2cccc(C3COB(O)C3)n2)c(C#N)c1OC1CCCC1 (stereo not shown) [Example 226, 2-(cyclopentyloxy)-6-(6-(2-hydroxy-1,2-oxaborolan-4-yl)pyridin-2-yl)-3-methoxybenzonitrile]	8.72 nM	24.7 nM	2520 nM							17.8 nM
COc1ccc(-c2cc(C3=CB(O)OC3)ccn2)cc1OC [Example 227, 4-(2-(3,4-dimethoxphenyl)pyridin-4-yl)-1,2-oxaborol-2(5H)-ol]	7.94 nM	285 nM	2540 nM							9.16 nM
CCOc1cc(-c2cncc(C3=CB(O)OC3)c2)ccc1OC [Example 229, 4-(5-(3-ethoxy-4-methoxyphenyl)pyridin-3-yl)-1,2-oxaborol-2(5H)-ol]	2.64 nM	195 nM	2730 nM							2.9 nM

The remaining lines, values ahead:

IC50 [1]	IC50 (IL-4)	IC50 (IL-13)	Mean, Cumulative Amount in 24 hours [2, 3]	Mean, Max. Flux [2, 3]	Mean, Cumulative Amount in 24 hours [2, 4]	Mean, Max. Flux [2, 4]	Mean, Cumulative Amount in 24 hours [2, 5]	Mean, Max. Flux [2, 5]	IC50 (IFNγ)	SMILES
1.92 nM	17.6 nM	2390 nM							2.4 nM	COc1ccc(-c2cc(C3COB(O)C3)ccn2)cc1OC1CCCC1 (stereo not shown) [Example 210, 4-(2-(3-(cyclopentyloxy)-4-methoxyphenyl)pyridin-4-yl)-1,2-oxaborolan-2-ol]
2.27 nM	103 nM	1900 nM							3.29 nM	CCCOc1cc(-c2nccc(C3COB(O)C3)n2)ccc1OC (stereo not shown) [Example 212, 4-(2-(4-methoxy-3-propoxyphenyl)pyrimidin-4-yl)-1,2-oxaborolan-2-ol]
6.32 nM	80.9 nM	1980 nM							3.36 nM	CCCOc1c(OC)ccc(-c2cccc(C3COB(O)C3)n2)c1F (stereo not shown) [Example 213, 4-(6-(2-fluoro-4-methoxy-3-propoxyphenyl)pyridin-2-yl)-1,2-oxaborolan-2-ol]
3.29 nM	540 nM	2130 nM							2.37 nM	CCOc1cc(-c2cc(C(F)(F)F)cc(C3COB(O)C3)n2)ccc1OC (stereo not shown) [Example 220, 4-(6-(3-ethoxy-4-methoxyphenyl)-4-(trifluoromethyl)pyridin-2-yl)-1,2-oxaborolan-2-ol]
4.65 nM	197 nM	583 nM							17.9 nM	COc1ccc(-c2cccc(C3COB(O)C3)c2)cc1OC (stereo not shown) [Example 232, 4-(3′,4′-dimethoxy-[1,1′-biphenyl]-3-yl)-1,2-oxaborolan-2-ol]
8.74 nM	104 nM	508 nM							2.94 nM	CCOc1cc(-c2cccc(C3COB(O)C3)n2)ccc1OC (stereo not shown) [Example 233, 4-(6-(3-ethoxy-4-methoxyphenyl)pyridin-2-yl)-1,2-oxaborolan-2-ol]

From patent publication US11559538B2, “Substituted 1,2-oxaborolan-2-ols as PDE4 inhibitors” (Pfizer Inc., priority 2018, dated 2023)
